Data: US20200078379A1, “DEFEROXAMINE DERIVATIVES AS MEDICAMENTS” (BIOTECHNOLOGICKY USTAV AV CR, V.V.I., priority 2017, published 2020)

Experiments:
MDA-MB-231 cells [1] = experiment: cellular migration into scratch, JULI FL; assay type: cell-based, human
Procedure: (§1) In order to test the effect of compound 2 on cellular migration, we have seeded MCF7 or MDA-MB-231 cells in 12 well plates, let them reach confluence and then introduced a scratch in the monolayer with a 10 μl pipette tip.

MCF7 cells [2] = experiment: cellular migration into scratch, JULI FL; assay type: cell-based, human
Procedure: as §1

CFPAC-1 cells = experiment: crystal violet assay, cellular viability; assay type: cell-based; details: Homo sapiens, CFPAC-1, 48 hours
[3] = system: non malignant cells (BJ), human fibroblast; experiment: crystal violet assay, cellular viability; assay type: cell-based
Procedure: (§2) Compound 1 and compound 2 were tested in their efficacy to kill malignant MCF7 cancer cells. Briefly, 10.000 cells per well were seeded in a 96-well plat on one day and the next day selected compounds were added and incubated with the cells for 48 hrs. The cells were then fixed with 4% paraformaldehyde, stained with 0.05% crystal violet, washed with PBS, and solubilized in 1% SDS. The absorbance of the plate at 595 nm was then measured, quantifying the number of viable cells.
(§3) A number of compounds of the present invention were tested for cytotoxicity towards at least some of human breast cancer cell lines (MCF7, MDA-MB-231), human fibroblast (BJ) and murine triple negative breast cancer cell line 4T1 (Table 2).

[4] = system: murine triple negative breast cancer cell line 4T1; experiment: crystal violet assay, cellular viability; assay type: cell-based; details: Mus musculus, 4T1, 48 hours
Procedure: as §2, §3

MCF7 cells [5] = experiment: AnnexinV/PI cell death assay; assay type: cell-based, human; details: for mean percentage of dead cells (AnnexinV/PI): 48 hrs
Procedure: (§4) Briefly, cells were seeded in 12-well plate at 100,000 per well, incubated with the selected compounds for 48 hours, then floating cells were spun, adherent cells trypsinized and spun as well followed by the staining with AnnexinV-FITC and PI probes. Cells were then washed with PBS and measured via Fluorescence Activated Sorter.

MCF7 cells [6] = experiment: cellular proliferation, continuous confluence monitoring via Juli FL; assay type: cell-based, human; details: for Final confluence: MCF7, 48 hrs
Procedure: We also tested the ability of compound 2 to suppress proliferation of cancer cells by an alternative approach via the real time monitoring with a cellular analyser Juli FL. In brief, MCF7 or MDA-MB-231 cells were seeded in a 6-well plate the day before to reach approximately 20% confluence on the following day. Next day, the camera of the instrument was focused on a particular field with approximately 20% confluence and cells were continuously monitored, recording the confluence and visual appearance every 30 minutes for 48 hrs. Values were then expressed either as simple confluence at the end of the experiment or as slope of the line representing the confluence during a given period of time (Table 10). It is clear from the collected data that, in agreement with Xcelligence data, we do see inhibition of proliferation at 1 μM, complete block of proliferation at 2 μM and a cytotoxic effect at 5 μM. The effect is less pronounced in this case as dead cells remain in the monitored field and some are still counted as living cells by the software.

MCF7 cells [7] = experiment: cellular respiration, OXYGRAPH instrument; assay type: cell-based, human
Text: Application of compound 2 leads to marked inhibition of cellular respiration as evidenced by two independent methods: the Oxygraph instrument (Rohlenova, K., Sachaphibulkij, K., Stursa, J., Bezawork-Geleta, A., Blecha, J., Endaya, B., Werner, L., Cerny, J., Zobalova, R., Goodwin, J., Spacek, T., Alizadeh, P. E., Yan, B., Nguyen, M. N., Vondrusova, M., Sobol, M., Jezek, P., Hozak, P., Truksa, J., Rohlena, J., Dong, L. F., & Neuzil, J. (2017) Selective Disruption of Respiratory Supercomplexes as a New Strategy to Suppress Her2high Breast Cancer. Antioxid. Redox. Signal., 26, 84-103) (Table 6) and Seahorse instrument (Table 7). For Seahorse analysis, 20.000 or 30.000 cells were seeded in 96 well plates and incubated with compound 2 for 1 hour. Afterwards, oxygen consumption rate (OCR) and extracellular acidification rate (ECAR) were measured in three cycles of 3 minutes preceded by 3 minutes of mixing, using a Seahorse XFe96 analyzer (Agilent). Results express the mean values of the three cycles.

MDA-MB-231 cells [8] = experiment: AnnexinV/PI cell death assay; assay type: cell-based, human; details: 48 hrs
Procedure: as §4, with “To confirm such findings by an independent method, cell death-inducing potency (cytotoxic efficacy) of DFO and compound 2 have been tested via annexin V/PI staining commonly used as a measure of apoptotic/necrotic cell death. Briefly,” for “Briefly,”

[9] = system: tamoxifen-resistant MCF7 (Tam5R); experiment: crystal violet assay, tamoxifen resistant cells; assay type: cell-based; details: Homo sapiens, grown in 5 μM tamoxifen
Procedure: as §2
(§5) To test whether compound 2 is active against resistant cancer cells, we used tamoxifen-resistant MCF7, T47D and BT474 cell lines. The IC50 values were again measured with the crystal violet assay performed as in example 18. We have documented that there is no statistically significant difference in the ability of compound 2 to induce cytostatic and cytotoxic effects between the parental cells sensitive to tamoxifen and the resistant ones that grow even in the presence of tamoxifen (Table 4).

[10] = system: tamoxifen-resistant BT474 (Tam5R); experiment: crystal violet assay, tamoxifen resistant cells; assay type: cell-based; details: Homo sapiens, BT-474, grown in 5 μM tamoxifen
Procedure: as §2, §5

[11] = system: tamoxifen-resistant T47D (Tam5R); experiment: crystal violet assay, tamoxifen resistant cells; assay type: cell-based; details: Homo sapiens, grown in 5 μM tamoxifen
Procedure: as §2, §5

## CC(=O)N(O)CCCCCNC(=O)CCC(=O)N(O)CCCCCNC(=O)CCC(=O)N(O)CCCCCN(CCCCCCCCCC[P+](c1ccccc1)(c1ccccc1)c1ccccc1)CCCCCCCCCC[P+](c1ccccc1)(c1ccccc1)c1ccccc1.[Cl-].[Cl-] [Compound 2, Triphenyl(3,14,25-trihydroxy-2,10,13,21,24-pentaoxo-31-(10-(triphenylphosphonio)decyl)-3,9,14,20,25,31-hexaazahentetracontan-41-yl)phosphonium chloride]
MDA-MB-231 cells [1]; MDA-MB-231, 0 h, 1 μM
  mean percentage of non-invaded portion of the scratch: 100 (5.5) %
MDA-MB-231 cells [1]; MDA-MB-231, 0 h, 2 μM
  mean percentage of non-invaded portion of the scratch: 100 (7.4) %
MDA-MB-231 cells [1]; MDA-MB-231, 0 h, 5 μM
  mean percentage of non-invaded portion of the scratch: 100 (6.5) %
MDA-MB-231 cells [1]; MDA-MB-231, 24 h, 1 μM
  mean percentage of non-invaded portion of the scratch: 40.7 (8.9) %
MDA-MB-231 cells [1]; MDA-MB-231, 24 h, 2 μM
  mean percentage of non-invaded portion of the scratch: 42.7 (8.0) %
MDA-MB-231 cells [1]; MDA-MB-231, 24 h, 5 μM
  mean percentage of non-invaded portion of the scratch: 48.4 (8.9) %
MDA-MB-231 cells [1]; MDA-MB-231, 48 h, 1 μM, cells started to die at 48 hrs
  mean percentage of non-invaded portion of the scratch: 61.7 (6.7) %
MDA-MB-231 cells [1]; MDA-MB-231, 48 h, 2 μM, cells started to die at 48 hrs
  mean percentage of non-invaded portion of the scratch: 76.2 (13.3) %
MDA-MB-231 cells [1]; MDA-MB-231, 48 h, 5 μM, cells started to die at 48 hrs
  mean percentage of non-invaded portion of the scratch: 98.5 (9.1) %
MCF7 cells [2]; MCF7, 0 h, 1 μM
  mean percentage of non-invaded portion of the scratch: 100 (4.1) %
MCF7 cells [2]; MCF7, 0 h, 2 μM
  mean percentage of non-invaded portion of the scratch: 100 (4.8) %
MCF7 cells [2]; MCF7, 0 h, 5 μM
  mean percentage of non-invaded portion of the scratch: 100 (4.4) %
MCF7 cells [2]; MCF7, 24 h, 1 μM
  mean percentage of non-invaded portion of the scratch: 78.8 (5.2) %
MCF7 cells [2]; MCF7, 24 h, 2 μM
  mean percentage of non-invaded portion of the scratch: 79.2 (1.1) %
MCF7 cells [2]; MCF7, 24 h, 5 μM
  mean percentage of non-invaded portion of the scratch: 83.8 (0.6) %
MCF7 cells [2]; MCF7, 48 h, 1 μM
  mean percentage of non-invaded portion of the scratch: 61.8 (5.3) %
MCF7 cells [2]; MCF7, 48 h, 2 μM
  mean percentage of non-invaded portion of the scratch: 66.1 (1.1) %
MCF7 cells [2]; MCF7, 48 h, 5 μM
  mean percentage of non-invaded portion of the scratch: 78.8 (0.6) %
CFPAC-1 cells
  IC50: 6.9 µM
[3]; BJ vs BJ (reference)
  Selectivity index (IC50 non-malignant/IC50 malignant): 1
[3]; Homo sapiens, Fibroblast, BJ non malignant, 48 hours, crystal violet
  IC50: 14.3 µM
[4]
  IC50: 2 µM
MCF7 cells [5]; MCF7, 5 μM
  mean percentage of dead cells (AnnexinV/PI): 35.6%
MCF7 cells [5]; MCF7, 10 μM
  mean percentage of dead cells (AnnexinV/PI): 43.7%
MCF7 cells [5]; MCF7, 20 μM
  mean percentage of dead cells (AnnexinV/PI): 64.0%
MCF7 cells [5]; MCF7, ratio Ga:compound 2 0:1, 10 μM compound 2 alone
  percentage of death cells by annexinV/PI staining: 35.3 (0.5)
MCF7 cells [6]; MCF7, 0-22 h, 1 μM
  slope of the confluence line: 0.655 (0.022)
MCF7 cells [6]; MCF7, 0-22 h, 2 μM
  slope of the confluence line: 0.324 (0.016)
MCF7 cells [6]; MCF7, 0-22 h, 5 μM
  slope of the confluence line: 0.317 (0.030)
MCF7 cells [6]; MCF7, 22-48 h, 1 μM
  slope of the confluence line: 0.510 (0.014)
MCF7 cells [6]; MCF7, 22-48 h, 2 μM
  slope of the confluence line: 0.104 (0.007)
MCF7 cells [6]; MCF7, 22-48 h, 5 μM
  slope of the confluence line: −0.076 (0.010)
MCF7 cells [6]; 1 μM
  Final confluence: 53.15 (4.0)
MCF7 cells [6]; 2 μM
  Final confluence: 32.94 (2.5)
MCF7 cells [6]; 5 μM
  Final confluence: 26.54 (1.9)
MCF7 cells [7]; MCF7, 5 μM
  mean O2 flow per cells: 15.9 pmol/s/mL
MCF7 cells [7]; MCF7, 5 μM (5 h)
  mean O2 flow per cells: 9.8 pmol/s/mL
MCF7 cells [7]; MCF7, 25 μM
  mean O2 flow per cells: 7.1 pmol/s/mL
MDA-MB-231 cells [8]; MDA-MB-231, 5 μM
  mean percentage of dead cells (AnnexinV/PI): 39.8%
MDA-MB-231 cells [8]; MDA-MB-231, 10 μM
  mean percentage of dead cells (AnnexinV/PI): 78.5%
MDA-MB-231 cells [8]; MDA-MB-231, 20 μM
  mean percentage of dead cells (AnnexinV/PI): 98.0%
[9]
  IC50: 2.1 µM
[10]
  IC50: 4.2 µM
[11]
  IC50: 1.2 µM
